Where “and” joins values, the source holds several entries; their conditions need not be identical. Identical values can stand only once. Entries after “also recorded” stand apart in the source; their conditions may differ.
Legend:
[1] = test system: native rabbit intestinal tissue
[2] = test system: native rabbit intestinal tissue; remark: listed apart in the source
[3] = test system: native rabbit intestinal tissue; assay: Electrical field stimulation induced relaxation, real-time force generation
[4] = test system: tissue engineered innervated intestinal smooth muscle sheets; assay: as above; format: cell-based, rabbit
[5] = test system: tissue engineered innervated intestinal smooth muscle sheets; format: cell-based, rabbit

Compound: CC(=O)OCC[N+](C)(C)C [Ach, Acetylcholine]
- area under the curve of Ach-induced contraction ([1]; 1 μM Ach, native tissue): 70448±5876 AU
- peak Ach-induced contraction ([1]; 1 μM Ach, native tissue): 342.6±3.15 μN

Compound: [Cl-].[K+] [KCl, Potassium chloride]
- peak KCl-induced contraction [2]: 373.5±10.63 μN and 373.3±10.63 μN

Compound: COC(=O)[C@@H](N)CCCNC(=N)N[N+](=O)[O-].Cl [L-NAME, Nω-Nitro-L-arginine methyl ester hydrochloride]
- inhibition of EFS-induced relaxation with L-NAME ([3]; L-NAME 300 μM pre-treatment, hydrochloride): 78±2.9% and ~78%
- inhibition at 300 µM ([3]; Oryctolagus cuniculus, L-NAME 300 μM pre-treatment, read-out: inhibition of EFS-induced relaxation with L-NAME): 78 ± 2.85%

Compound: NC1=N[C@H](O)[C@H]2[C@H]3O[C@]4(O)O[C@@H]([C@@H](O)[C@@]2(N1)[C@@H]4O)[C@]3(O)CO [TTX, tetrodotoxin]
- effect of TTX pre-treatment on EFS-induced relaxation [4]: inhibited entirely
- inhibition of Ach-induced contraction with TTX [1]: 72.73±3.66% and 72.73±3.7%
- effect of TTX pre-treatment on KCl-induced contraction [5]: unaffected; also recorded: did not inhibit

Compound: [D-p-Cl-Phe6, Leu17]-Vasoactive Intestinal Peptide [VIP-Ra]
- inhibition of EFS-induced relaxation with VIP-Ra ([3]; VIP-Ra 2 μM pre-treatment): 73.32±3.23%

Source: patent US10377985B2, “Neural progenitor cell differentiation” (priority 2013, dated 2019)
